Experimental data reported in patent US11680068B2, “Compounds useful as RET inhibitors” (Cancer Research Technology Limited, priority 2017, dated 2023).

What follows are compounds tested against RET (Homo sapiens (Human), UniProt P07949) (assay: RET enzyme assay (CisBio HTRF kinEASE)). Details: tested compounds listed as lacking activity.
Format: biochemical

Sequence of RET (P07949 658-1114): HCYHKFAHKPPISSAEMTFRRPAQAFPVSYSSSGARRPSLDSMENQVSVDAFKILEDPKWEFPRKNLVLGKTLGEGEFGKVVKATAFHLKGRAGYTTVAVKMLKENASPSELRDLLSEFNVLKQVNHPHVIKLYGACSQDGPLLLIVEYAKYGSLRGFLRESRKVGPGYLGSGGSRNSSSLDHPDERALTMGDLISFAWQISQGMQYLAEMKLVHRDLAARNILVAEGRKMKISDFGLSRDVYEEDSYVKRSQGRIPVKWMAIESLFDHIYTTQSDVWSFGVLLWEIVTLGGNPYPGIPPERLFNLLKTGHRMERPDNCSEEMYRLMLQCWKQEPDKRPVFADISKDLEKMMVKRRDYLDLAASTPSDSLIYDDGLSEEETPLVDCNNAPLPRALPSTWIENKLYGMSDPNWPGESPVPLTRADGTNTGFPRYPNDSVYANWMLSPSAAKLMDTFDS

| SMILES | desired activity in the assays described in Example 51 |
| --- | --- |
| CC(C)(C)n1nc(-c2ccc3cc(C(=O)O)[nH]c3c2)c2c(N)ncnc21 [6-(4-amino-1-tert-butyl-pyrazolo[3,4-d]pyrimidin-3-yl)-1H-indole-2-carboxylic acid] | did not exhibit the desired activity |
| CC(C)(C)n1nc(-c2ccc3cc(C(=O)Nc4nnc(C(F)(F)F)s4)[nH]c3c2)c2c(N)ncnc21 [6-(4-amino-1-tert-butyl-pyrazolo[3,4-d]pyrimidin-3-yl)-N-[5-(trifluoromethyl)-1,3,4-thiadiazol-2-yl]-1H-indole-2-carboxamide] | did not exhibit the desired activity |
| CNC(=O)c1cc2ccc(-c3n[nH]c4ncnc(N)c34)cc2[nH]1 [6-(4-amino-1H-pyrazolo[3,4-d]pyrimidin-3-yl)-N-methyl-1H-indole-2-carboxamide] | did not exhibit the desired activity |
| CNC(=O)c1cc2ccc(-c3nn(CCO)c4ncnc(N)c34)cc2[nH]1 [6-[4-amino-1-(2-hydroxyethyl)pyrazolo[3,4-d]pyrimidin-3-yl]-N-methyl-1H-indole-2-carboxamide] | did not exhibit the desired activity |
| CNC(=O)c1cc2ccc(-c3nn(CC(=O)N(C)C)c4ncnc(N)c34)cc2[nH]1 [6-[4-amino-1-[2-(dimethylamino)-2-oxo-ethyl]pyrazolo[3,4-d]pyrimidin-3-yl]-N-methyl-1H-indole-2-carboxamide] | did not exhibit the desired activity |
| CNC(=O)c1cc2ccc(-c3nn(CCC(=O)N(C)C)c4ncnc(N)c34)cc2[nH]1 [6-[4-amino-1-[3-(dimethylamino)-3-oxo-propyl]pyrazolo[3,4-d]pyrimidin-3-yl]-N-methyl-1H-indole-2-carboxamide] | did not exhibit the desired activity |
| CCNC(=O)c1cc2ccc(-c3nn([C@H]4CC[C@@H](O)C4)c4ncnc(NC)c34)cc2[nH]1 [N-ethyl-6-[1-[(1S,3R)-3-hydroxycyclopentyl]-4-(methylamino)pyrazolo[3,4-d]pyrimidin-3-yl]-1H-indole-2-carboxamide] | did not exhibit the desired activity |
